# Values quoted from earlier work in US12611419B2, “Liposomal composition for use in a method of treating Parkinson's disease” (INNOMEDICA HOLDING AG, priority 2017, dated 2026).
# Tests used:
# [1] = system: rodent model of Parkinson's disease; details: in vivo
# [2] = system: spinal cord injuries; details: patients
# [3] = system: PD patients
# [4] = system: B4galnt1 transgenic mice; details: mice deficient in GM1 family gangliosides
Compound,Parkinson's symptoms [1],outcome in spinal cord injuries [2],"safety, open pilot study ([3]; 10 PD patients, 1000 mg i.v. then 200 mg/day subcutaneous, 18 weeks)","anti-GM1 antibody titres, open pilot study ([3]; 10 PD patients, 18 weeks)","PET (11)C-methylphenidate binding ([3]; GM1-treated groups, baseline, week 24, 1-2 years later)",safety of long-term administration ([3]; delayed start study),"UPDRS motor scores, early-start group ([3]; delayed start study, week 24)","UPDRS motor scores, five-year open extension ([3]; end of 5 years of GM1 use, off period)","UPDRS motor scores vs placebo ([3]; randomized placebo-controlled study, 45 individuals, 16 weeks)",adverse events at the injection site ([3]; subcutaneous administration),pathological CNS manifestations [4]
CCCCCCCCCCCCC/C=C/C(O)C(COC1OC(CO)C(OC2OC(CO)C(OC3OC(CO)C(O)C(OC4OC(CO)C(O)C(O)C4O)C3NC(C)=O)C(OC3(C(=O)O)CC(O)C(NC(C)=O)C(C(O)C(O)CO)O3)C2O)C(O)C1O)NC(=O)C(Cl)Cl (centres unmarked) [LIGA20],reduce Parkinson's symptoms,–,–,–,–,–,–,–,–,–,–
monosialotetrahexosylganglioside [GM1],–,positive outcomes in patients,safe and well tolerated,none of the patients developed elevated anti-GM1 antibody titres,significant slowing of binding loss in several striatal regions,safe and well tolerated,significant improvement in UPDRS motor scores,lower UPDRS motor scores,significant differences between groups,"pain, irritation of the skin site and severe haematoma at the injection site occur",ameliorated these pathological CNS manifestations
